From patent publication US20240409519A1, “HYDROGENATED QUINOXALINES” (OTSUKA PHARMACEUTICAL CO., LTD., priority 2021, published 2024)

Tests used:
dopamine (DA) uptake = biological target: T1, dopamine (DA) uptake (Rattus norvegicus, UniProt P23977); experiment: Dopamine (DA) uptake inhibitory activity using rat brain synaptosome; assay type: biochemical; conditions: rat striatum synaptosome, tritium-labeled DA 2 nM; read-out: IC50 (nM), dopamine (DA) uptake inhibition
T1 construct: used as crude synaptosomal fraction; from tissue; host or cells: rat striatum, crude synaptosomal fraction
T1 sequence (P23977 whole entry): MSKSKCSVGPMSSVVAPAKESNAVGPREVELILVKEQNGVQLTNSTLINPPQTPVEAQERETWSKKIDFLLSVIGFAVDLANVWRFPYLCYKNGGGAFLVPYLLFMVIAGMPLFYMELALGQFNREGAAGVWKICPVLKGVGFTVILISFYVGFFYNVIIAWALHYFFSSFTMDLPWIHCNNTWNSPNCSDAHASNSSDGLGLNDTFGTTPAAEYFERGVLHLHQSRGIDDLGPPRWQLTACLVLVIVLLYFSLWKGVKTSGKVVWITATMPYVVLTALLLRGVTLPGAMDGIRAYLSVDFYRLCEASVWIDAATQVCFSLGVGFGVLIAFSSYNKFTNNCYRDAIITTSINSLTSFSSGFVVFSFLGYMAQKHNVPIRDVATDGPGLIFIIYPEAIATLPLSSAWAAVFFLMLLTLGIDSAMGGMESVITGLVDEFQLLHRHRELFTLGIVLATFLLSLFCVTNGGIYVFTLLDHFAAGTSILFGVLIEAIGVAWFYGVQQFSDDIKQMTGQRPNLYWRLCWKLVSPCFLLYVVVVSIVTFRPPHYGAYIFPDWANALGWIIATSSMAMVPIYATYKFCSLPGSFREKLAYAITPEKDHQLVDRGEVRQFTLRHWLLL
Method: (§1) Male Wistar rats were decapitated, each brain was removed, and the striatum was cut out. […] The homogenate was centrifuged at 1000 g at 4° C. for 10 minutes, and the supernatant was further centrifuged at 20000 g at 4° C. for 20 minutes. The pellet was suspended in an incubation buffer (20 mM Hepes buffer (pH 7.4) containing 10 mM glucose, 145 mM sodium chloride, 4.5 mM potassium chloride, 1.2 mM magnesium chloride and 1.5 mM calcium chloride) and used as crude synaptosomal fraction.
Each well of a 96-well round-bottom plate was used for the uptake reaction in a total volume of 200 μl solution containing purgurin (final concentration 10 μM) and ascorbic acid (final concentration 0.2 mg/mL). In other words, solvent, unlabeled DA or step-diluted test compound was added to each well, and one-tenth of the final volume of the synaptosomal fraction was added to each well, followed by pre-incubation at 37° C. for 10 minutes, and then tritium-labeled DA solution (final concentration 2 nM) was added and the uptake reaction was initiated at 37° C. After 10 minutes, the uptake reaction was terminated by suction filtration onto a 96-well glass fiber filter plate. The filters were rinsed with cold physi-ological saline solution, dried thoroughly, and micro scintillation 0 (Perkin-Elmer) was added thereto. Then, the residual radioactivity on the filters was measured.
The uptake value when only solvent was added was set as 100%, the uptake value when unlabeled DA (final concentration 10 μM) was added as 0% (nonspecific uptake value), and the 50% inhibitory concentration was calculated from the concentration of the test compound and its inhibitory activity.

[1] = biological target: T2, norepinephrine (NE) uptake (Rattus norvegicus, UniProt Q63380); experiment: Norepinephrine (NE) uptake inhibitory activity using rat brain synaptosome; assay type: biochemical; conditions: rat hippocampus synaptosome, tritium-labeled NE 12 nM; read-out: IC50 (nM), norepinephrine (NE) uptake inhibition
T2 construct: used as crude synaptosomal fraction; from tissue; host or cells: rat hippocampus, crude synaptosomal fraction
T2 sequence (Q63380 1-617): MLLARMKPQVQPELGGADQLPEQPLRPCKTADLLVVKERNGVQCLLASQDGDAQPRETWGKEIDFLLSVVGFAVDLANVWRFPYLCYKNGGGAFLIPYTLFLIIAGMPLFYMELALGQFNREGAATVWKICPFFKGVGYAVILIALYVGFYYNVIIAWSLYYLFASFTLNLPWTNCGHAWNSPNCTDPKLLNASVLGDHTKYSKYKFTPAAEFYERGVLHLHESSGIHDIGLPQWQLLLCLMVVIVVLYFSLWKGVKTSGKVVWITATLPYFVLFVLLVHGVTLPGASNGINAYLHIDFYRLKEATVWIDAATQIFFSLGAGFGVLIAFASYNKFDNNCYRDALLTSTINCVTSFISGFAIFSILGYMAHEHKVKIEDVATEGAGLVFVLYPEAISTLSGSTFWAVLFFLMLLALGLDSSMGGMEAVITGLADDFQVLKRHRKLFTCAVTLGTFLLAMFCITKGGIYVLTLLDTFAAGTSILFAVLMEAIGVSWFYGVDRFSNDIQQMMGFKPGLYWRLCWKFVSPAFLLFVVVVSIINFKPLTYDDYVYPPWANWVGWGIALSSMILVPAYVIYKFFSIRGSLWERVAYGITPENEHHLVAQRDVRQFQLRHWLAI
Method: as §1, with “hippocampus” for “striatum”
Each well of a 96-well round-bottom plate was used for the uptake reaction in a total volume of 200 μL solution containing purgurin (final concentration 10 μM) and ascorbic acid (final concentration 0.2 mg/mL).
After 10 minutes, the uptake reaction was terminated by suction filtration onto a 96-well glass fiber filter plate. The filters were rinsed with cold physi-ological saline solution, dried thoroughly, and micro scintillation 0 (Perkin-Elmer) was added thereto. Then, the residual radioactivity on the filters was measured.
The uptake value when only solvent was added was set as 100%, the uptake value when unlabeled NE (final concentration 10 μM) was added as 0% (nonspecific uptake value), and the 50% inhibitory concentration was calculated from the concentration of the test compound and its inhibitory activity.

CYP3A4 = biological target: T3, CYP3A4 (Homo sapiens, UniProt P08684); experiment: CYP inhibition test (1): inhibition rate (%) at one concentration, CYP3A4; assay type: in vitro ADME; conditions: human liver microsomes, pH 7.4, probe midazolam (0.005 mmol/L); test compound 0.01 mmol/L, human liver microsome 0.1 mg/mL, substrate midazolam, 37° C. 10 minutes; read-out: inhibition rate (%) 3A4
T3 construct: a human liver microsome solution containing three CYP-specific substrates; from tissue; host or cells: human liver microsomes
T3 sequence (P08684 whole entry): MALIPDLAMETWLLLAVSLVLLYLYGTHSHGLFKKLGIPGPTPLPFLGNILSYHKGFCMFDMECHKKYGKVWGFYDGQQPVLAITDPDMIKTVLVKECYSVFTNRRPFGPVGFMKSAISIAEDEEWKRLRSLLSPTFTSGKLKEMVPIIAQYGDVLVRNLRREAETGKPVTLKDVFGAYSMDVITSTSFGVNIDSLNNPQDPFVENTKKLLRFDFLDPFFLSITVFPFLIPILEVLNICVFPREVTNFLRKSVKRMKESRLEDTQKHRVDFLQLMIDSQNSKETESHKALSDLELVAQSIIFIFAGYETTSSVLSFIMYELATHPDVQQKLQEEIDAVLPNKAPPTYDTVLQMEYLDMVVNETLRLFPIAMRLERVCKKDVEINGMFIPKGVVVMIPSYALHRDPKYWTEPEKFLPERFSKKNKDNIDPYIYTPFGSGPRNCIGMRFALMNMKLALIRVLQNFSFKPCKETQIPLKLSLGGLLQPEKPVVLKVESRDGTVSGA
Method: A metabolic reaction was initiated by adding and mixing a test compound solution (final concentration 0.01 mmol/L) and a NADH/NADPH solution (final concentration 1 mmol/L) to a human liver microsome solution containing three CYP-specific substrates (final concentration 100 mmol/L potassium phosphate buffer solution (pH 7.4), 5 mmol/L magnesium chloride, 0.1 mg/mL human liver microsome, 0.005 mmol/L diclofenac (for CYP2C9), 0.01 mmol/L bufuralol (for […]), 0.005 mmol/L midazolam (for CYP3A4)). As an internal standard solution, a solution of each of stable isotopes of the metabolites (50 ng/mL [13C6] hydroxy diclofenac, 5 ng/mL [2H9] hydroxy bufuralol, and 5 ng/mL [13C6] hydroxy midazolam (all stable isotopes)) in methanol was prepared and used as a quenching solution.
Specifically, a metabolic reaction was initiated by adding and mixing 2 μL of a solution of a test compound in acetonitrile (or acetonitrile as a control) to 178 μL of a human liver microsome solution in ice water, followed by preincubation at 37° C. for 1 minute, and then adding 20 μL of a NADH/NADPH solution thereto. After incubation at 37° C. for 10 minutes, 50 μL of the reaction mixture was taken, and then it was added and mixed to 500 μL of a quenching solution to quech the reaction. The mixture was centrifuged (6130 g, 4° C., 10 minutes) and the supernatant was used as a sample for LC-MS/MS.
Peak area ratio ([peak area of metabolite]/[peak area of corresponding stable isotope]) was calculated for a metabolite and a stable isotope of the metabolite as measurement object. By comparing the peak area ratio of each test compound solution with that of the control, the inhibition rate (%) of each CYP species for each test compound was calculated from (1-[peak area ratio of each test compound solution]/[peak area ratio of control])×100.

[2] = Protein binding rate test (human serum, equilibrium dialysis); assay type: in vitro ADME; conditions: test compound 0.001 mmol/L, equilibrium dialysis 37° C. 6 hours
Method: A serum sample was prepared by adding a test compound solution to a human serum (final concentration of the test compound: 0.001 mmol/L). The serum sample and Dulbecco's Phosphate-Buffered Saline (D-PBS(−)) were added to the wells separated by a dialysis membrane to start the reaction. A solution of the internal standard in methanol was prepared and used as a quenching solution.
Specifically, the dialysis membrane (cut-off molecular weight 12000-14000) was pre-conditioned by immersing it in distilled water, followed by 20% ethanol. Then, the membrane was washed with D-PBS(−) and set in an equilibrium dialysis kit. Then, 150 μL of D-PBS(−) was added to one part of each well divided by the dialysis membrane, and 150 μL of serum sample was added to the other part. After sealing all wells and incubation at 37° C. for 6 hours, 30 μL from the serum side and 90 μL from the PBS side of each well were collected and mixed with 90 μL of D-PBS(−) or 30 μL of blank serum and 480 μL of a quenching solution to quench the reaction.
The mixture was centrifuged (6130 g, 4° C., 10 minutes) and the supernatant was used as a sample for LC-MS/MS.
Peak area ratio ([peak area of test compound]/[peak area of internal standard]) was calculated for the test compound and the internal standard. By comparing the peak area ratio of the PBS side for each test compound with that of the serum side, the protein binding rate (%) of each test compound was calculated from (1-[peak area ratio of PBS side]/[peak area ratio of serum side])×100.

Row | SMILES | IC50 (dopamine (DA) uptake) [nM] | IC50 [1] [nM] | inhibition at 10 min, 0.01 mmol/L (CYP3A4) [%] | fraction unbound at 6 h, 0.001 mmol/L [2]
1 | OCCOc1c(F)cc(N2CC3(CCC3)N[C@H]3CCCC[C@@H]32)cc1Cl [Example 6] | 5.8 | 8.4 | 23.3 | 0.401
2 | OCCOc1ccc(N2CC3(CCC3)N[C@H]3CCCC[C@@H]32)cc1 [Example 8] | 49.5 | 37.2 | 7.1 | 0.686
3 | COc1cc(N2CC3(CCC3)N[C@H]3CCCC[C@@H]32)ccc1OCCO [Example 11] | 97.9 | 91 | -1.3 | 0.767
4 | Cc1cc(N2CC3(CCC3)N[C@H]3CCCC[C@@H]32)cc(F)c1OCCO [Example 14] | 5.5 | 8.5 | 14.4 | 0.615
5 | C[C@@H]1CN(c2cc(F)c(OCCO)c(Cl)c2)[C@H]2CCCC[C@@H]2N1 [Example 17, 2-(2-chloro-6-fluoro-4-((3R,4aS,8aS)-3-methyloctahydroquinoxalin-1(2H)-yl)phenoxy)ethan-1-ol 1/2fumarate] | 7.6 | 2.7 | – | 0.727
6 | C[C@H]1CN(c2cc(F)c(OCCO)c(Cl)c2)[C@H]2CCCC[C@H]2N1 [Example 18] | 42.9 | 13.3 | – | 0.741
7 | C[C@@H]1CN(c2ccc(OC(F)(F)CO)c(Cl)c2)[C@H]2CCCC[C@@H]2N1 [Example 19] | 47.4 | 2.4 | 16.1 | 0.471
8 | CC1(C)CN(c2ccc(OC(F)(F)CO)cc2)[C@H]2CCCC[C@@H]2N1 [Example 20, 2-(4-((4aS,8aS)-3,3-dimethyloctahydroquinoxalin-1(2H)-yl)phenoxy)-2,2-difluoroethan-1-ol] | 90.9 | 4.4 | – | 0.569
9 | CC1(C)CN(c2ccc(OC(F)(F)CO)cc2)[C@@H]2CCCC[C@H]2N1 [Example 21] | 199 | 69 | – | 0.585
10 | COc1cc(N2CC(C)(C)N[C@H]3CCCC[C@@H]32)ccc1OC(F)(F)CO [Example 26] | 213 | 21.3 | – | 0.58
11 | CC1(C)CN(c2ccc(OCCO)c(Cl)c2)[C@H]2CCCC[C@@H]2N1 [Example 27, 2-(2-chloro-4-((4aS,8aS)-3,3-dimethyloctahydroquinoxalin-1(2H)-yl)phenoxy)ethan-1-ol] | 99 | 7.7 | – | 0.585
12 | CC1(C)CN(c2ccc(OCCO)c(Cl)c2)[C@@H]2CCCC[C@H]2N1 [Example 28] | 76.5 | 9.7 | – | 0.616
13 | Cc1cc(N2CC(C)(C)N[C@H]3CCCC[C@@H]32)ccc1OC(F)(F)CO [Example 31] | 56.4 | 5.5 | – | 0.497
14 | Cc1cc(N2CC(C)(C)N[C@@H]3CCCC[C@H]32)ccc1OC(F)(F)CO [Example 32] | 60.7 | 7.5 | – | 0.482
15 | CC1(C)CN(c2cc(F)c(OCCO)c(F)c2)[C@H]2CCCC[C@@H]2N1 [Example 34, 2-(4-((4aS,8aS)-3,3-dimethyloctahydroquinoxalin-1(2H)-yl)-2,6-difluorophenoxy)ethan-1-ol] | 73.2 | 5.9 | – | 0.796
16 | CC1(C)CN(c2cc(F)c(OCCO)c(F)c2)[C@@H]2CCCC[C@H]2N1 [Example 35] | 59.7 | 6.8 | – | 0.776
17 | CC1(C)CN(c2cc(F)c(OCCO)c(F)c2)[C@H]2CCCC[C@H]2N1 [Example 36] | 25.6 | 5.1 | – | 0.638
18 | CN1[C@H]2CCCC[C@@H]2N(c2ccc(OC(F)(F)CO)cc2)CC1(C)C [Example 37, 2,2-difluoro-2-(4-((4aS,8aS)-3,3,4-trimethyloctahydroquinoxalin-1(2H)-yl)phenoxy)ethan-1-ol] | 81.9 | 34.5 | – | 0.529
19 | CC1(C)CN(c2ccc(OCCO)c(Cl)c2)[C@H]2CCCC[C@H]2N1 [Example 44, 2-(2-chloro-4-((4aR,8aS)-3,3-dimethyloctahydroquinoxalin-1(2H)-yl)phenoxy)ethan-1-ol 1/2fumarate] | 37.5 | 5.2 | -10.7 | 0.566
20 | Cc1cc(N2CC(C)(C)N[C@@H]3CCCC[C@@H]32)ccc1OC(F)(F)CO [Example 48] | 68.6 | 6.6 | -9.2 | 0.413
21 | CC1(C)CN(c2ccc(OCCO)c3occc23)[C@@H]2CCCC[C@@H]2N1 [Example 50] | 214 | 5.8 | 2 | 0.551
22 | CC1(C)CN(c2ccc(OCCO)c3occc23)[C@H]2CCCC[C@H]2N1 [Example 51] | 41.1 | 4.3 | 1.1 | 0.553
23 | CC1(C)CN(c2ccc(OCCO)c(F)c2)[C@H]2CCCC[C@H]2N1 [Example 52] | 74.4 | 8.3 | 0.1 | 0.73
